Measured values as given in PMC5458555, “Conformational dynamics of dynamin-like MxA revealed by single-molecule FRET” (Nature Communications, 2017).
Residue numbers refer to the chain shown, from its start.

Assays:
MxA^MO2 [1] = target: T1, MxA^MO2 (Homo sapiens, UniProt P20591, C322K/C336Q/C42S/C52S/M527D/R352C/R500C); test: isothermal titration calorimetry; assay type: binding; conditions: read-out: equilibrium dissociation constant
T1 construct: gene MX1; monomeric full-length-type MxA (M527D) with solvent-exposed cysteines replaced; N-terminal His6-PreScission tag cut, E. coli Rosetta (DE3); SEC peak ~70 kDa
T1 sequence (P20591 1-662 C42S/C52S/C322K/C336Q/R352C/R500C/M527D): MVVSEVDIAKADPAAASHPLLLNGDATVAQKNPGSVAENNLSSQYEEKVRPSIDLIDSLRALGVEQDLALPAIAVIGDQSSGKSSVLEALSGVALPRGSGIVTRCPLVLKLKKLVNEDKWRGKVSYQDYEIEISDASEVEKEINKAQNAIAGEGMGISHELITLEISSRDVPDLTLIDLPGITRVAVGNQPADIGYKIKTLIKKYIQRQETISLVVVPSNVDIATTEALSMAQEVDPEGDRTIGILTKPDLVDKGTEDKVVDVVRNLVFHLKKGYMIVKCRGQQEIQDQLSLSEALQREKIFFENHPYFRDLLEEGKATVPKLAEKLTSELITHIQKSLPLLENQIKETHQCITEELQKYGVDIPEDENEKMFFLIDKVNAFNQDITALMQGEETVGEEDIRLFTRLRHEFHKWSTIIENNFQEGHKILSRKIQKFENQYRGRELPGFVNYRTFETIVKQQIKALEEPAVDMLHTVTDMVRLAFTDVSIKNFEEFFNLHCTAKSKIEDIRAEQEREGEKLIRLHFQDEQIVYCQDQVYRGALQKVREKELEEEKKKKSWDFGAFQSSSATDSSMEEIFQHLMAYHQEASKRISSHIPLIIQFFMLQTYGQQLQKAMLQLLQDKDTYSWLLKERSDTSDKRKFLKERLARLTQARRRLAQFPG
Experimental: (§1) isothermal titration calorimetry on MxA^MO2 | The equilibrium dissociation constants for MxA^MO2-AS and MxA^MO2-RR to GDP and GMPPCP were determined

MxA^MO2 [2] = target: T2, MxA^MO2 (Homo sapiens, UniProt P20591, A149C/C322K/C336Q/C42S/C52S/M527D/S634C); test: isothermal titration calorimetry; assay type: binding; conditions: read-out: equilibrium dissociation constant
T2 construct: gene MX1; monomeric full-length-type MxA (M527D) with solvent-exposed cysteines replaced; N-terminal His6-PreScission tag cut, E. coli Rosetta (DE3); SEC peak ~70 kDa
T2 sequence (P20591 1-662 C42S/C52S/A149C/C322K/C336Q/M527D/S634C): T1 sequence (P20591 1-662 C42S/C52S/C322K/C336Q/R352C/R500C/M527D) with A149C, C352R, C500R, S634C
Experimental: as §1

Nc1nc2c(ncn2[C@@H]2O[C@H](COP(=O)(O)OP(=O)(O)O)[C@@H](O)[C@H]2O)c(=O)[nH]1 [GDP]
Kd (MxA^MO2 [1]): 26.3 ± 0.03 µM | Kd (MxA^MO2 [2]): 42.6 ± 0.14 µM

Nc1nc(O)c2ncn([C@@H]3O[C@H](COP(=O)(O)OP(=O)(O)C[P+]([O-])(O)O)[C@@H](O)[C@H]3O)c2n1 [GMPPCP, guanosine-5′-[(β,γ)-methyleno]triphosphate]
Kd (MxA^MO2 [1]): 14.7 ± 0.13 µM | Kd (MxA^MO2 [2]): 30 ± 0.003 µM
